This note sets out measurements from patent publication US12071404B2, “Aza (indole)-, benzothiophene-, and benzofuran-3-sulfonamides” (UCB Pharma GmbH, priority 2016, dated 2024).

The target in assay [1] is T1, GPR17 (Homo sapiens, UniProt Q13304). The assay can be described thus: cAMP accumulation functional assay (HTRF, Schild analysis). Details: host or cells: Flp-In T-REx CHO. The settings on record: CHO hGPR17 cells, Schild analysis vs MDL29,951, 5 μM forskolin, read-out: cAMP assay pA2 (converted). The class given is cell-based. Put shortly: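 CHO Flp-In T-REx cells with doxycycline-induced human GPR17 were preincubated 30 min at room temperature in HBSS-HEPES pH 7.4 with antagonist. cAMP was then measured by HTRF after 60 min. MDL29,951 pEC50 shifts gave dose ratios, and Schild analysis gave pA2.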

For assay [2], the target named is T1, GPR17. The assay can be described thus: Calcium mobilization functional assay (GPR17 Ca2+ assay). The settings on record: CHO hGPR17 cells, inhibition of 50 nM MDL29,951, Calcium 5 dye, FLIPR; read-out: Ca2+ assay pIC50 (converted). The class given is cell-based. The arrangement: host or cells: Flp-In T-REx CHO. Put shortly:
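Flp-In T-REx CHO cells stably expressing human GPR17, doxycycline-induced (1 μg/mL, 16-20 h), loaded 60 min with Calcium 5 dye. Inhibition by varying test-compound concentrations of the 50 nM MDL29,951 agonist response was read by fluorescence over time at room temperature. pIC50 came from 4-parameter logistic fitting.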
In general terms: Calcium assays in cells follow changes in intracellular calcium, usually with a dye or a luminescent sensor.

T1 sequence (Q13304 whole entry): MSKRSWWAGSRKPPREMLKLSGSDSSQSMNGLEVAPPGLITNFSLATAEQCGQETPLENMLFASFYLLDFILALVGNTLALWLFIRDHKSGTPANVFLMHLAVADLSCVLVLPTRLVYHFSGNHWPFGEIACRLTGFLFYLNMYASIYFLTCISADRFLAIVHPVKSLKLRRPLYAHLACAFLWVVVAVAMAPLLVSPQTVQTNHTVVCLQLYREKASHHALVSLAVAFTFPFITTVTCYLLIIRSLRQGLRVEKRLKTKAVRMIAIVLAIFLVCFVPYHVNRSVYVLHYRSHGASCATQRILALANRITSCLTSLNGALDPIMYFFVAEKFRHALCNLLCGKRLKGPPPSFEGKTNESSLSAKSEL

Regarding `O=S(=O)(Nc1cc(F)c(Cl)cc1F)c1c[nH]c2nc(C(F)(F)F)ccc12` [Compound I-247, N-(4-chloro-2,5-difluorophenyl)-6-(trifluoromethyl)-1H-pyrrolo[2,3-b]pyridine-3-sulfonamide], at GPR17 [1], the Kb is < 3.16 nM. For the same compound, the IC50 at GPR17 [2] is 3.16 to 31.6 nM.
On the same counts, the results for `O=S(=O)(Nc1cc(F)c(Cl)cc1F)c1c[nH]c2cc(Cl)c(Br)cc12` [Compound I-248, 5-bromo-6-chloro-N-(4-chloro-2,5-difluorophenyl)-1H-indole-3-sulfonamide] are 3.16 to 31.6 nM and 3.16 to 31.6 nM.
Taken in the same sequence, the figures for `Cc1noc(C)c1-c1c(Cl)ccc2c(S(=O)(=O)Nc3cc(F)c(Cl)cc3F)c[nH]c12` [Compound I-250, 6-chloro-N-(4-chloro-2,5-difluorophenyl)-7-(3,5-dimethyl-1,2-oxazol-4-yl)-1H-indole-3-sulfonamide] were 3.16 to 31.6 nM and 3.16 to 31.6 nM.
With `O=S(=O)(Nc1cc(F)c(Cl)cc1F)c1c[nH]c2cc(Br)cc(F)c12` [Compound I-251, 6-bromo-N-(4-chloro-2,5-difluorophenyl)-4-fluoro-1H-indole-3-sulfonamide], the Kb on GPR17 [1] is 3.16 to 31.6 nM. Also, the IC50 at GPR17 [2] was 3.16 to 31.6 nM.
With `COC/C=C/c1cc(F)c(NS(=O)(=O)c2c[nH]c3cc(Cl)ccc23)nc1F` [Compound I-252, 6-chloro-N-{3,6-difluoro-5-[(1E)-3-methoxyprop-1-en-1-yl]pyridin-2-yl}-1H-indole-3-sulfonamide], the Kb at GPR17 [1] is < 3.16 nM. Besides, the IC50 on GPR17 [2] was < 3.16 nM.
For `COCCCc1cc(F)c(NS(=O)(=O)c2c[nH]c3cc(Cl)ccc23)nc1F` [Compound I-253, 6-chloro-N-[3,6-difluoro-5-(3-methoxypropyl)pyridin-2-yl]-1H-indole-3-sulfonamide], the Kb at GPR17 [1] was < 3.16 nM. For the same compound, the IC50 at GPR17 [2] was < 3.16 nM.
For the compound `COc1nc(NS(=O)(=O)c2c[nH]c3cc(Cl)ccc23)c(F)cc1Cl` [Compound I-254, 6-chloro-N-(5-chloro-3-fluoro-6-methoxypyridin-2-yl)-1H-indole-3-sulfonamide], at GPR17 [1], the Kb is < 3.16 nM. In addition, the IC50 on GPR17 [2] is < 3.16 nM.
With `COc1nc(NS(=O)(=O)c2c[nH]c3cc(Cl)ccc23)c(F)cc1CC#N` [Compound I-255, 6-chloro-N-[5-(cyanomethyl)-3-fluoro-6-methoxypyridin-2-yl]-1H-indole-3-sulfonamide], the Kb on GPR17 [1] was < 3.16 nM. In addition, the IC50 at GPR17 [2] was < 3.16 nM.
Regarding `N#Cc1c(Cl)ccc2c(S(=O)(=O)Nc3cc(F)c(Cl)cc3F)c[nH]c12` [Compound I-256, 6-chloro-N-(4-chloro-2,5-difluorophenyl)-7-cyano-1H-indole-3-sulfonamide], at GPR17 [1], the Kb is < 3.16 nM. The IC50 on GPR17 [2] was < 3.16 nM.
`N#CCOc1cc(F)c(NS(=O)(=O)c2c[nH]c3cc(Cl)ccc23)cc1F` [Compound I-257, 6-chloro-N-[4-(cyanomethoxy)-2,5-difluorophenyl]-1H-indole-3-sulfonamide]: the Kb on GPR17 [1] was < 3.16 nM. Moreover, the IC50 at GPR17 [2] is < 3.16 nM.
`N#Cc1ccc(NS(=O)(=O)c2c[nH]c3cc(Cl)c(F)cc23)c(F)c1` [Compound I-258, 6-chloro-N-(4-cyano-2-fluorophenyl)-5-fluoro-1H-indole-3-sulfonamide]: the Kb at GPR17 [1] is 3.16 to 31.6 nM. Besides, the IC50 at GPR17 [2] was < 3.16 nM.
On the same counts, the results for `O=S(=O)(Nc1cc(F)c(Br)cc1F)c1coc2cc(Cl)ccc12` [Compound I-259, N-(4-bromo-2,5-difluorophenyl)-6-chloro-1-benzofuran-3-sulfonamide] are < 3.16 nM and 3.16 to 31.6 nM.
On the same counts, the results for `O=S(=O)(Nc1cc(F)c(OCC2CC2)cc1F)c1c[nH]c2cc(Cl)ccc12` [Compound I-260, 6-chloro-N-[4-(cyclopropylmethoxy)-2,5-difluorophenyl]-1H-indole-3-sulfonamide] are 3.16 to 31.6 nM and 3.16 to 31.6 nM.
